The source of these data is US20170232059A1, “COMPOSITION COMPRISING OXYTOCIN” (PEP-TONIC MEDICAL AB, priority 2012, published 2017).

The conditions of series [1]: in vivo; cited from earlier work.
The conditions of series [2]: cited from earlier work.
Series [3] can be described thus: Bioavailability of vaginally administered oxytocin, study OXYPEP002. Format: in vivo. As to conditions: human; for level at 0.5 h / level at 1 h / level at 2 h: post-dose; for level at 0.5 h: read-out: Average blood oxytocin level, 30 min Visit 2; for level at 1 h: read-out: Average blood oxytocin level, 60 min Visit 2; for level at 2 h: read-out: Average blood oxytocin level, 120 min Visit 2; for AUC(0-t): read-out: AUC0-30 min. The method, then:
The objective of the present analysis was to estimate the bioavailability of oxytocin following vaginal administration of 100 (170 μg) or 400 IU (680 μg) oxytocin vaginal gel using data from study OXYPEP002 (Clinical trial protocol OXYPEP002). The oxytocin vaginal gel is Vagitocin® gel.
Data from study OXYPEP002 was used for the analysis. Study OXYPEP002 was conducted with the primary objective to investigate the dose-relationship of topical Vagitocin on the vaginal mucosal membrane (Clinical trial protocol OXYPEP002). OXYPEP002 was a double-blind, randomized, placebo controlled trial, with a parallel group design. Vagitocin (oxytocin gel) in two different doses (100 IU and 400 IU) was administered topically once daily during 7 weeks. A placebo gel with the same composition was used as comparator. In total 64 patients were to be included in the study. At the baseline visit (visit 1), blood sampling for oxytocin analysis were drawn for the first 24 included subjects. This sample represents the true baseline oxytocin observation. For the same 24 subjects, blood sampling for oxytocin analysis were also drawn at visit 2 (2 weeks ±2 days) with sampling pre-dose and at 30 min, 60 min and 120 min post-dose. Only subjects that completed the full sampling schedule were included in the analysis. The calculations were based on average blood oxytocin measurements for each dose level and sampling time point (Table 2).
The systemic oxytocin exposure following vaginally administered oxytocin was assessed by calculating the area under the blood concentration versus time curve (AUC) according to the trapezoidal rule. The data from visit 2 were used where the pre-dose sample was assumed to represent a new baseline observation.
The blood concentration of oxytocin had not returned to the baseline observation at the lasts sampling time point (120 min post-dose).
The endogenous oxytocin level (AUCbaseline) was calculated and subtracted from the total AUC to achieve the oxytocin exposure following the vaginally administered dose (AUCvaginal).
The bioavailability was calculated according to equation 1. As no intravenous dose was administered in study OXYPEP002, AUCiv was calculated according to available information in the literature (De Groot A N et al. 1995, Amico J A et al. 1987, Dawood M Y et al. 1980) according to equation 2.

Series [4] can be described thus: Blood plasma levels of oxytocin after intravaginal administration (Example 1) and AUC calculation. Format: in vivo, human. How it is done: The first value is taken before the treatment of intravaginal oxytocin has started.
Blood samples were collected from 20 individuals before and repeatedly after administration of oxytocin during a 90 minute period. […] (FIG. 2).
The amount of oxytocin which is absorbed following intravaginal administration of oxytocin expressed as area under the curve (AUC) can be calculated using the trapezoid method according to standardized pharmacokinetic procedures as the clearance rat for oxytocin (CL) is known (70 L/H).
As oxytocin levels were only measured during a 90 minute period it had to be assumed that the concentration of oxytocin after 2 hours continues to fall according to the half-life of oxytocin.

The nature of series [5]: Skin penetration in Franz diffusion cells. The following applies: for share that has penetrated the skin: of 200 IU (approx. 0.4 mg). Format: in vitro ADME, pig. How it is done: Skin penetration was performed in Franz diffusion cells using dermatomed pig's ear skin (thickness approx. 500 μm and surface area 0.64 cm^2). The receptor volume of each cell was 6 mL and citrate buffer, pH 4.5 was used as receptor media. The temperature was maintained at 32° C. and the stirring speed in the receptor chamber was kept at 300 rpm. Sampling was done in triplicate at 24 hours intervals for 4 days, i.e. 24, 48, 72 and 96 h. 1.5 mL of receptor media was taken and replaced with the same volume of citrate buffer. Immediately after collection the samples were kept at −20° C.
A water solution of oxytocin was prepared in a concentration of 4000 IU/g, which corresponds to ca 6.8 mg/g. The solution was pH adjusted with a 50 mM citrate buffer to 4.0 in order to achieve reasonable chemical stability. The oxytocin solutions were added in excess, ca 1 g, on the donor side of the skin and covered to prevent evaporation.
The samples were thawed just prior analysis by HPLC, method M272-0. The limit of quantification (QL) is 12.5 ng/mL or 1.25 ng injected amount.

Setting [6] is: six male subjects, intravenous 1 IU (De Groot 1995).

In general, bioavailability refers to the share of a dose that reaches the circulation, judged against a reference dose that is usually intravenous.

Like-named read-outs stand apart in the source and are kept apart here. Starred links: 1 amine or outer side, 2 acyl side, 3 side chain; linkers in the order of their positions; H or OH if unused. Positions of bridges follow the written chain, without caps; N, C: chain ends. Residues, ends and D or L forms follow the SMILES beside them. X1 = O=C(CCC[*:2])[*:1]

For `CC[C@H](C)[C@@H]1NC(=O)[C@H](Cc2ccc(OC)cc2)NC(=O)CCCSC[C@@H](C(=O)N2CCC[C@H]2C(=O)N[C@@H](CC(C)C)C(=O)NCC(N)=O)NC(=O)[C@H](CC(N)=O)NC(=O)[C@H](CCC(N)=O)NC1=O` [carbetocin] (Y(Me)IQNCPLG-NH2; linker N-5 via X1), the “half-life relative to oxytocin” value in series [1] is recorded as “about three times longer”.

In the case of `CC[C@H](C)[C@@H]1NC(=O)[C@H](Cc2ccc(O)cc2)NC(=O)[C@@H](N)CSSC[C@@H](C(=O)N2CCC[C@H]2C(=O)N[C@@H](CC(C)C)C(=O)NCC(N)=O)NC(=O)[C@H](CC(N)=O)NC(=O)[C@H](CCC(N)=O)NC1=O` [oxytocin, Cys-Tyr-Ile-Gln-Asn-Cys-Pro-Leu-Gly-NH2], the CL in series [2] (healthy male subjects (Amico 1987, Dawood 1980)) is 70 to 90 L/h. In addition, the “clearance rate (CL)” value in series [2] (known value used for AUC calculation) is listed as 70 L/H. Further, in series [2] (setting [6]), the “terminal elimination half-life (t1/2)” value is 19.8 min. For the same compound, the “volume of distribution (V)” value in series [2] (setting [6]) is given as 33.2 L. Moreover, the “total body CL” value in series [2] (six male subjects, intravenous dose of 1 IU (1.7 μg), two-compartment model (De Groot 1995)) was 67.1 L/h. Moreover, the half-life result in series [1] is recorded as “about 30 min”. The AUC came out at 0.0633 ng·h/mL in series [3] (female, blood, 100 IU, 100 IU vaginal, read-out: AUC30-60 min); 0.11 ng·h/mL in series [3] (female, blood, 100 IU, 100 IU vaginal, read-out: AUC60-120 min); 0.346 ng·h/mL in series [3] (female, blood, 100 IU, 100 IU vaginal, residual area alternative i, read-out: AUCresidual); 0.299 ng·h/mL in series [3] (female, blood, 100 IU, 100 IU vaginal, residual area alternative i, read-out: AUCvaginal); 0.0322 ng·h/mL in series [3] (female, blood, 100 IU, 100 IU vaginal, residual area alternative ii, read-out: AUCresidual); 0.156 ng·h/mL in series [3] (female, blood, 100 IU, 100 IU vaginal, residual area alternative ii, read-out: AUCvaginal). The AUC is 0.362 ng·h/mL in series [3] (female, blood, 400 IU, 400 IU vaginal, read-out: AUC30-60 min); 0.504 ng·h/mL in series [3] (female, blood, 400 IU, 400 IU vaginal, read-out: AUC60-120 min); 0.783 ng·h/mL in series [3] (female, blood, 400 IU, 400 IU vaginal, residual area alternative i, read-out: AUCresidual); 1.53 ng·h/mL in series [3] (female, blood, 400 IU, 400 IU vaginal, residual area alternative i, read-out: AUCvaginal); 0.193 ng·h/mL in series [3] (female, blood, 400 IU, 400 IU vaginal, residual area alternative ii, read-out: AUCresidual); 1.1 ng·h/mL in series [3] (female, blood, 400 IU, 400 IU vaginal, residual area alternative ii, read-out: AUCvaginal). The compound also came in with an AUC in series [3] (in vivo, iv, 1 ug, AUCiv, assumed intravenous dose of 1 μg and a CL of 70 L/h) of 0.0143 ng·h/mL. The bioavailability is 12% in series [3] (female, blood, 100 IU, 100 IU vaginal, residual area alternative i, read-out: Bioavailability); 6.4% in series [3] (female, blood, 100 IU, 100 IU vaginal, residual area alternative ii, read-out: Bioavailability); 16% in series [3] (female, blood, 400 IU, 400 IU vaginal, residual area alternative i, read-out: Bioavailability); 11% in series [3] (female, blood, 400 IU, 400 IU vaginal, residual area alternative ii, read-out: Bioavailability); 6.4 to 16% in series [3] (female, blood, vaginal, 100 and 400 IU, read-out: bioavailability, range over both dose levels and alternatives). Further, the level at 0.5 h in series [3] (female, blood, 100 IU vaginal) amounted to 0.133 ng/mL; in series [3] (female, blood, 400 IU vaginal) it was 0.816 ng/mL. The level at 1 h in series [3] (female, blood, 100 IU vaginal) is 0.12 ng/mL; in series [3] (female, blood, 400 IU vaginal), 0.63 ng/mL. Also, the level at 2 h is 0.099 ng/mL in series [3] (female, blood, 100 IU vaginal) and 0.378 ng/mL in series [3] (female, blood, 400 IU vaginal). In addition, the AUC(0-t) in series [3] (female, blood, 100 IU vaginal) came out at 0.0426 ng·h/mL; in series [3] (female, blood, 400 IU vaginal), 0.219 ng·h/mL. For the same compound, the “fraction of the given dose absorbed” value in series [4] (100 IU intravaginal) was 0.064; in series [4] (400 IU intravaginal) it was 0.11. For the same compound, the “plasma oxytocin levels at 15, 30, 60 and 90 minutes after administration” value in series [4] (100 and 400 IU intravaginal, FIG. 2) is recorded as “elevated in a pulse like fashion”. Further, the “plasma levels of oxytocin” value in series [4] (following 100 and 400 IU intravaginal, 90 minute period) is “rose dose dependently”. For the same compound, the “plasma oxytocin value obtained 10 hours after treatment” value in series [4] (intravaginal, FIG. 2, vs before treatment) is on record as “higher than those observed before treatment was started”. Moreover, the “absorbed via the epithelial membrane into the blood stream” value in series [4] (topical composition comprising a non-ionic cellulose ether) was “about 10%”. In addition, the “share that has penetrated the skin” value was 0.1% in series [5] (after 24 h) and approximately 1% in series [5] (after 96 h). Besides, the “oxytocin penetrated into receptor” value in series [5] (after 24 h, 4000 IU/g water solution) was 0.6 µg. Moreover, the “oxytocin detected in the receptor chamber” value in series [5] (after 96 hours, 4000 IU/g citrate buffered water solution, pH 4.0, 32° C.) amounted to 4 µg.
